Source: patent EP3246013A1, “INHIBITION OF THE ADHESION OF MICROORGANISMS PATHOGENATED BY A STEARATE AND/OR SORBITAN SUCROSE IN THE COSMETIC TREATMENT OF ATOPIC DERMATITIS” (priority 2012, dated 2014)

Legend:
S. aureus = assay: Ex vivo inhibition of adhesion of S. aureus on human corneocytes (D-Squame discs), crystal violet staining and image counting; assay type: cell-based, Staphylococcus aureus; conditions: for Inhibition de l'adhésion de S. aureus (%) Essai 1 / Inhibition de l'adhésion de S. aureus (%) Essai 2: human corneocytes; for Inhibition de l'adhésion de S. aureus (%) Essai 1: trial 1; for Inhibition de l'adhésion de S. aureus (%) Essai 2: trial 2
Protocol: Afin de corroborer les résultats obtenus in vitro, un test d'adhésion ex vivo sur des cornéocytes humains a été mis au point d'après la méthode réalisée chez le chien (McEwan et al., 2005).
La souche clinique de S. aureus (CIP 65-8) a été prélevée sur un patient, au sein du laboratoire de bactériologie clinique de l'hôpital de la Timone à Marseille.
La souche de S. aureus est inoculée dans 10 ml de milieu 'Nutrient Broth N° 2' (Oxoid) et incubée sous agitation à 37°C pendant 12 heures. Les bactéries sont collectées par centrifugation et le culot bactérien est remis en suspension dans un tampon phosphate PBS. La population bactérienne est ajustée approximativement à 10^6 CFU/ml avec de l'eau osmosée.
Des zones cibles sont délimitées sur chaque bras d'un volontaire humain. Pour chaque zone, les débris cutanés sont éliminés grâce à 5 « pré-strippings » successifs avec des disques Sellotape™Original (diamètre 22 mm). Les cornéocytes sont ensuite collectés sur chaque zone cible à l'aide de disques adhésifs D-Squame™ (diamètre 22 mm) et d'un applicateur de disque D-Squame réglé à la pression de 150 g/cm^2.
Les disques sont ensuite placés dans des boîtes de Pétri, de diamètre 35 mm. Les disques sont alors recouverts par 0,5 ml d'eau ou 0,5 ml de la solution de S. aureus à 10^6 CFU/ml, contenant le composé polyhydroxylé à tester, à raison de trois zones pour chacun d'entre eux.
Les composés polyhydroxylés testés avec ce protocole expérimental sont : • le xylitol, à une concentration finale de 0,5%; • le sucrose stéarate HLB 16 (sucrose monostéarate, SURFHOPE C1816,), à une concentration finale de 1%, • le sucrose laurate monoester (SURFHOPE C1216), à une concentration finale de 0,1 %, • le polysorbate 60, à une concentration finale de 0,1%, • le polysorbate 60, à une concentration finale de 1%, • le polysorbate 20, à une concentration finale de 0,1%,
Toutes les solutions sont préparées dans de l'eau et mises en contact avec S. aureus à température ambiante 45 min avant le début de l'expérience d'adhésion. Les boites sont ensuite incubées à 37°C pendant 60 min. Les disques sont alors rincés avec de l'eau osmosée, ce qui permet d'éliminer les bactéries n'ayant pas adhéré aux cornéocytes. Les bactéries ayant adhéré aux cornéocytes humains sont alors colorées par du cristal violet oxalaté pendant 10 secondes. Les disques sont enfin rincés avec de l'eau osmosée, placés sur une lame de microscope et séchés à l'air libre pendant 24 h.
Les images des bactéries adhérentes sont acquises à l'aide d'un microscope Olympus BX 53 couplé à une caméra numérique. Les images collectées sont ensuite analysées par le logiciel UTHSCSA Image Tool (Reindeer Graphics Inc.). Le nombre de bactéries par disque est calculé par une moyenne arithmétique de 10 à 12 images, ce qui correspond à la surface d'environ 100 cornéocytes. Les comparaisons entre différentes moyennes sont effectuées avec le logiciel Statgraphics Plus (Manugistics Inc.).

Staphylococcus aureus = assay: In vitro inhibition of adhesion of S. aureus on a solid support (glass chamber slide), crystal violet staining and automatic counting; assay type: cell-based; conditions: for Nombre de cellules par champ: adhesion to glass slide, mean of three fields ± SD, water control 99 ± 11; for inhibition de l'adhésion (% par rapport au témoin eau): glass slide
Protocol: Le protocole suivant est mis en oeuvre : • Une préculture de S. aureus issue du laboratoire de bactériologie clinique de l'hôpital de la Timone (CIP 65-8) est réalisée dans du milieu 'Nutrient Broth N° 2' (Oxoid), pendant 12h, à 37°C; • La culture est centrifugée à 9 000 g, pendant 10 min et le culot bactérien est remis en suspension dans un tampon phosphate (PBS); • A partir de cette suspension, une dilution au 1/50 est réalisée dans une solution aqueuse ou une solution aqueuse contenant le composé polyhydroxylé à tester. Il s'agit soit du xylitol, soit du sucrostéarate HLB 16 (SURFHOPE™ C1816); • Les bactéries sont préincubées en présence du composé polyhydroxylé à tester pendant 45 min, à 37 °C; • Le mélange (100 µl) est ensuite déposé dans un puits d'une lame cytologique en verre, de surface fixe (0,8 cm^2) et délimitée par des parois, c'est-à-dire une lame adaptée à la culture cellulaire (Chamber Slide System, Labtek); • Les cultures bactériennes sont ensuite incubées à 37°C, pendant 60 min et ultérieurement rincées délicatement avec de l'eau ultra pure, ce qui permet d'éliminer les bactéries n'ayant pas adhéré à la surface du puits de la lame; • Les bactéries ayant adhéré dans chaque puits sont par la suite colorées par le cristal violet pendant 10 secondes, puis rincées et séchées pendant 12h, à 25°C; • Les bactéries sont enfin observées à l'aide d'un microscope optique, par grossissement x 1000, en immersion, les champs étant parfaitement homogènes; • Un comptage automatique des bactéries dans chaque puits est finalement réalisé à l'aide d'un logiciel approprié.
Selon ce protocole, l'effet des composés polyhydroxylés a été analysé pour l'activité d'inhibition de l'adhésion de S. aureus sur le support solide. Le xylitol à une concentration finale de 0,5% et le sucrostéarate HLB 16 (sucrose monostéarate, SURFHOPE C18-C16) à une concentration finale de 1% ont été testés. Tableau 1 : Effets du xylitol (0,5%) et du sucrostéarate HLB 16 (1%) sur l'adhésion de S. aureus à la surface des lames de verre. Les résultats correspondent à une moyenne du comptage de trois champs, qui est présentée avec l'écart type correspondant.

Row | Compound | effet sur l'adhésion de S. aureus sur les cornéocytes (S. aureus; final concentration 0,1%) | Inhibition de l'adhésion de S. aureus (%) Essai 1 (S. aureus; final concentration 0,1%) | activité inhibitrice (adhésion de S. aureus sur les cornéocytes) (S. aureus; final concentration 1%) | Inhibition de l'adhésion de S. aureus (%) Essai 1 (S. aureus; final concentration 1%) | also measured
1 | monostéarate de sorbitan polyoxyethylène 20 [Polysorbate 60] | résultats très satisfaisants | 39,8% | ≥ 50% | 54% | 
2 | OC[C@@H](O)[C@H](O)[C@@H](O)CO [Xylitol, xylitol, reference compound] |  |  |  |  | Nombre de cellules par champ (Staphylococcus aureus; final concentration 0,5%): 91 ± 6; inhibition de l'adhésion (% par rapport au témoin eau) (Staphylococcus aureus; final concentration 0,5%): 8%; effet inhibiteur sur l'adhésion de S. aureus sur les cornéocytes (S. aureus; final concentration 0,5%): ~20%; Inhibition de l'adhésion de S. aureus (%) Essai 1 (S. aureus; final concentration 0,5%): 21,0%; Inhibition de l'adhésion de S. aureus (%) Essai 2 (S. aureus; final concentration 0,5%): 20,2%
3 | monolaurate de sorbitan ethoxylé [Polysorbate 20] | résultats très satisfaisants | 57% |  |  | 
4 | sucrose laurate monoester [reference compound] | augmentation significative de l'adhésion | -22.8% |  |  | 
5 | sucrose monostéarate [Sucrostéarate HLB 16] |  |  | ≥ 50% | 57,0% | Nombre de cellules par champ (Staphylococcus aureus; final concentration 1%): 12 ± 1; inhibition de l'adhésion (% par rapport au témoin eau) (Staphylococcus aureus; final concentration 1%): 88%; inhibition de l'adhésion de S. aureus à la surface des lames de verre (Staphylococcus aureus; text conclusion in words, 1%): forte inhibition; Inhibition de l'adhésion de S. aureus (%) Essai 2 (S. aureus; final concentration 1%): 49,6%
